These results are taken from patent US5917056A (priority 1995, dated 1999).

Data set [1] deals with A549 (Human NSCLC). Put plainly: Cytotoxicity on tumour cell lines, A549 (Human NSCLC). It is filed as cell-based. The conditions noted are these: exposure time 72 h. Here is the method:
(§1) Standard conditions: basal medium=RPMI 1640+20 mM HEPES+2 mM L-glutamine.

Data set [2] deals with MCF7 (Human breast). Put plainly: Cytotoxicity on tumour cell lines, MCF7 (Human breast). It is filed as cell-based. Conditions: exposure time 72 h. As to the method:
as §1

In data set [3] the test system is tumours. The data set is described as follows: cytotoxic and antitumour activity (statement in words).
Data set [4] relates to HT-29 (Human colon). Put plainly: Cytotoxicity on tumour cell lines, HT-29 (Human colon). It is filed as cell-based. The conditions noted are these: exposure time 72 h. As to the method: as §1
In data set [5] the test system is A121 (Human ovarian). Put plainly: Cytotoxicity on tumour cell lines, A121 (Human ovarian). Conditions: exposure time 72 h. It is filed as cell-based. Here is the method:
as §1

Data set [6] has as its system L1210 (murine leukemia). The data set is described as follows: Cytotoxicity on tumour cell lines, L1210 (murine leukemia). The class given is cell-based. The conditions noted are these: Mus musculus, exposure time 72 h. As to the method: as §1
Data set [7] in a line: adverse effects / tolerability (statement in words). Conditions: compared with paclitaxel / prior art.
Data set [8] deals with tumours. Conditions: background art, cited from earlier work.
For data set [9], the system named is MCF7-ADR (resistant). The data set is described as follows: cells. The class given is cell-based. Conditions: Homo sapiens, NCI/ADR-RES, 72 h.
The conditions of data set [10]: clinical use, background art; cited from earlier work.

Each structure is given as a SMILES string.

Regarding `CC(=O)O[C@H]1C(=O)[C@@]2(C)[C@H]([C@H](OC(=O)c3ccccc3)[C@]34OC(=S)O[C@H]3[C@H](OC(=O)[C@H](O)[C@H](CC(C)C)NC(=O)OC(C)(C)C)C(C)=C1C4(C)C)[C@]1(OC(C)=O)CO[C@@H]1C[C@@H]2O` [Compound 5, 13-[(2R,3S)-3-tert-butoxycarbonyl-amino-2-hydroxy-3-isobutyl-propanoyl]-14β-hydroxybaccatine III 1,14-thiocarbonate], the IC50 is 2.3 ± 0.3 nM in data set [1]; 1.2 ± 0.2 nM in [2]; 0.3 ± 0.1 nM in data set [4]; 0.8 ± 0.3 nM in [5]; 0.5 ± 0.1 nM in data set [6]. In addition, the “activity (in words)” value in data set [3] is “particularly active”.

On to `CC(=O)O[C@H]1C(=O)[C@@]2(C)[C@H]([C@H](OC(=O)c3ccccc3)[C@]34OC(=S)O[C@H]3[C@H](OC(=O)[C@H](O)[C@H](C=C(C)C)NC(=O)OC(C)(C)C)C(C)=C1C4(C)C)[C@]1(OC(C)=O)CO[C@@H]1C[C@@H]2O` [Compound 6, 13-[(2R,3S)-3-tert-butoxycarbonylamino-2-hydroxy-3-isobutenyl-propanoyl]-14β-hydroxybaccatine III 1,14-thiocarbonate], for which, in data set [3], the “activity (in words)” value was “particularly active”.

With `CCCCCC(=O)N[C@@H](C=C(C)C)[C@@H](O)C(=O)O[C@@H]1C(C)=C2[C@@H](OC(C)=O)C(=O)[C@@]3(C)[C@H]([C@H](OC(=O)c4ccccc4)[C@@]4(OC(=S)O[C@@H]14)C2(C)C)[C@]1(OC(C)=O)CO[C@@H]1C[C@@H]3O` [Compound 7, 13-[(2R,3S)-3-caproylamino-2-hydroxy-3-isobutenyl-propanoyl]-14β-hydroxybaccatine III 1,14-thiocarbonate III], the “activity (in words)” value in [3] is given as “particularly active”.

As for `CCCCCC(=O)N[C@@H](C=C(C)C)[C@@H](O)C(=O)O[C@@H]1C(C)=C2[C@@H](OC(C)=O)C(=O)[C@@]3(C)[C@H]([C@H](OC(=O)c4ccccc4)[C@@]4(OC(=N)O[C@@H]14)C2(C)C)[C@]1(OC(C)=O)CO[C@@H]1C[C@@H]3O` [Compound 8, 13-[(2R,3S)-3-caproylamino-2-hydroxy-3-isobutenyl-propanoyl]-14β-hydroxybaccatine III 1,14-iminocarbonate], the IC50 was determined as 2.1 ± 0.3 nM in [1]; 0.8 ± 0.2 nM in data set [2]; 0.5 ± 0.1 nM in [4]; 1.9 ± 0.2 nM in data set [5]; 2.4 ± 0.1 nM in data set [6]. Further, the drawbacks / tolerability result in [7] is “advantages compared with the compounds of the prior art in terms of both activity and tolerability”. Moreover, in [3], the “activity (in words)” value is “advantages compared with the compounds of the prior art in terms of both activity and tolerability”.

Regarding `CCCCCC(=O)N[C@@H](C=C(C)C)[C@@H](O)C(=O)O[C@@H]1C(C)=C2[C@@H](OC(C)=O)C(=O)[C@@]3(C)[C@H]([C@H](OC(=O)c4ccccc4)[C@@]4(OS(=O)O[C@@H]14)C2(C)C)[C@]1(OC(C)=O)CO[C@@H]1C[C@@H]3O` (stereo partly drawn) [Compound 9, 13-[(2R,3S)-3-caproylamino-2-hydroxy-3-isobutenyl-propanoyl]-14β-hydroxybaccatine-III 1,14-sulfite], the IC50 in [1] was 1.8 ± 0.2 nM; in data set [2], 1 ± 0.3 nM; in [4], 0.5 ± 0.1 nM; in data set [5], 1.1 ± 0.1 nM; in data set [6], 1.8 ± 0.1 nM. In data set [7], the drawbacks / tolerability result was “advantages compared with the compounds of the prior art in terms of both activity and tolerability”. Further, in data set [3], the “activity (in words)” value was “advantages compared with the compounds of the prior art in terms of both activity and tolerability”.

Take `CC(=O)O[C@H]1C(=O)[C@@]2(C)[C@H]([C@H](OC(=O)c3ccccc3)[C@]3(O)C[C@H](OC(=O)[C@H](O)[C@@H](NC(=O)c4ccccc4)c4ccccc4)C(C)=C1C3(C)C)[C@]1(OC(C)=O)CO[C@@H]1C[C@@H]2O` [Paclitaxel, paclitaxel, reference compound]: the induction of resistance entry in data set [8] is on record as “induces resistance quickly”. Also, the anticancerogenic activity entry in [8] (different forms of human tumours) is given as “anticancerogenic activity on different forms of human tumours”. For the same molecule, the half-maximal inhibitory concentration (IC50) in data set [1] amounted to 5.7 ± 0.5 nM; in data set [9], 395 ± 8.7 nM; in [2], 4.8 ± 0.1 nM; in data set [4], 6.9 ± 0.4 nM; in data set [5] it was 4.7 ± 0.3 nM; in data set [6] it was 7.5 ± 2 nM. The clinical drawbacks entry in [10] is on record as “cardiotoxicity”.
